The subject of this assay is SK-OV-3 cells. The assay is described as follows: Effect of compounds on tryptophan catabolism in SK-OV-3 cell line (inhibition of kynurenine production, LC-MS/MS). The format is cell-based. The note with it: SK-OV-3 cell line, 24 h incubation, kynurenine in supernatant by LC-MS/MS, read-out: IC50 Ranges (ic50 values for inhibition of Kynurenine production). The protocol:
SK-OV-3 cells are seeded in 96-well plates in McCoy's 5A medium supplemented with 10% FBS and incubated overnight at 37° C., 5% CO2, 95% humidity. The […] growth medium is replaced with DMEM F-12 medium supplemented with 6 mg/mL L-tryptophan. Compounds are added to the wells and incubated for 24 h at 37° C., 5% CO2, 95% humidity. Compounds are tested at 8 consecutive 3-fold dilutions starting from 30 μM in duplicate. At the end of incubation, concentration of kynurenine in cell supernatants is […] determined by LC-MS/MS. In parallel, cell viability is assessed by measurement of ATP using CellTiter Glo assay (Promega), according to manufacturer's protocol. Inhibition of Kyn production is calculated using the following formula: […] IC50 ranges for compounds of the invention are presented in Table 2, whereby the IC50 ranges are as follows: • A: […]

These results are taken from patent publication US20210238139A1, “MODULATORS OF TRYPTOPHAN CATABOLISM” (E-Therapeutics PLC, priority 2018, published 2021).

Like-named read-outs stand apart in the source and are kept apart here. A value given as a limit tells only on which side of the number the result lay.

With `N#Cc1cc(CN(C(=O)Nc2ccccc2)C2CCCC2)ccc1F` [Compound 50, 1-[(3-cyano-4-fluoro-phenyl)methyl]-1-cyclopentyl-3-phenyl-urea], the IC50 (Homo sapiens, SK-OV-3, 24 h) lay in the range of 100 to 500 nM.
Regarding `O=C(Nc1ccc(F)cc1)N(Cc1ccncc1)C1CCCC1` [Compound 75, 1-cyclopentyl-3-(4-fluorophenyl)-1-(4-pyridylmethyl)urea], the IC50 (Homo sapiens, SK-OV-3, 24 h) was over 5000 nM.
Same read-out and setting: as for `Cc1ccc(CN(C(=O)Nc2nnc(-c3cccs3)o2)C2CCCC2)o1` [Compound 168, 1-cyclopentyl-1-[(5-methyl-2-furyl)methyl]-3-[5-(2-thienyl)-1,3,4-oxadiazol-2-yl]urea], the figure is 500 to 1000 nM.
For `Cc1ccc(CN(C(=O)Nc2ccc(C(F)(F)F)nc2)C2CCCC2)o1` [Compound 228, 1-cyclopentyl-1-[(5-methyl-2-furyl)methyl]-3-[6-(trifluoromethyl)-3-pyridyl]urea], the IC50 (Homo sapiens, SK-OV-3, 24 h) lay in the range of 100 to 500 nM.
On to `O=C(Nc1ccc(F)c(F)c1)N(Cc1ccco1)C1CCCC1` [Compound 30, 1-cyclopentyl-3-(3,4-difluorophenyl)-1-(2-furylmethyl)urea], for which, under “Homo sapiens, SK-OV-3, 24 h”, the IC50 was in the range of 100 to 500 nM.
As to `CC(C)(C)OC(=O)N1CCC(CN(C(=O)Nc2ccc(Cl)cc2)C2CCCC2)CC1` [Compound 120, tert-butyl 4-[[(4-chlorophenyl)carbamoyl-cyclopentyl-amino]methyl]piperidine-1-carboxylate], for the setting “Homo sapiens, SK-OV-3, 24 h”, the IC50 was in the range of 100 to 500 nM.
`O=C(Nc1cc(Cl)nc(Cl)c1)N(Cc1cccs1)C1CCCC1` [Compound 10, 1-cyclopentyl-3-(2,6-dichloro-4-pyridyl)-1-(2-thienylmethyl)urea]: the IC50 (Homo sapiens, SK-OV-3, 24 h) was 1000 to 5000 nM.
On the same count and under the same terms, as for `Cc1ccc(CN(C(=O)Nc2ccc(-c3ccccc3)cc2)C2CCCC2)o1` [Compound 150, 1-cyclopentyl-1-[(5-methyl-2-furyl)methyl]-3-(4-phenylphenyl)urea], the figure is 100 to 500 nM.
Same read-out and setting: the result for `Cc1ccc(CN(C(=O)Nc2ccc(C#N)cc2)c2cncn2C)o1` [Compound 231, 3-(4-cyanophenyl)-1-[(5-methyl-2-furyl)methyl]-1-(3-methylimidazol-4-yl)urea] reads 1000 to 5000 nM; that for `CC(c1cccc(C#N)c1)N(C(=O)Nc1ccc(F)cc1)C1CCC1` (racemic) [Compound 189, 1-[1-(3-cyanophenyl)ethyl]-1-cyclobutyl-3-(4-fluorophenyl)urea], 100 to 500 nM; that for `COc1ncc(CN(C(=O)Nc2ccccc2)C2CCCC2)s1` [Compound 49, 1-cyclopentyl-1-[(2-methoxythiazol-5-yl)methyl]-3-phenyl-urea], 1000 to 5000 nM.
Turning to `O=C(Nc1ccc(F)cc1)N(Cc1ccno1)C1CCCC1` [Compound 127, 1-cyclopentyl-3-(4-fluorophenyl)-1-(isoxazol-5-ylmethyl)urea], where the note is “Homo sapiens, SK-OV-3, 24 h”, the IC50 is over 5000 nM.
Same read-out and setting: the result for `Cc1ccc(CN(C(=O)Nc2ccc(F)c(F)c2)C2CCCC2)s1` [Compound 27, 1-cyclopentyl-3-(3,4-difluorophenyl)-1-[(5-methyl-2-thienyl)methyl]urea] reads 100 to 500 nM; that for `COc1ccc(CN(C(=O)NCCc2ccccc2)C2CCCC2)cc1C` [Compound 46, 1-cyclopentyl-1-[(4-methoxy-3-methyl-phenyl)methyl]-3-(2-phenylethyl)urea], 1000 to 5000 nM.
Same read-out and setting: as for `N#Cc1ccc(NC(=O)N(Cc2ccc3nsnc3c2)C2CCC2)cc1` [Compound 255, 1-(2,1,3-benzothiadiazol-5-ylmethyl)-3-(4-cyanophenyl)-1-cyclobutyl-urea], the figure is 100 to 500 nM; as for `CC(=O)c1ccc(NC(=O)N(Cc2cccs2)C2CCCC2)cc1` [Compound 22, 3-(4-acetylphenyl)-1-cyclopentyl-1-(2-thienylmethyl)urea], over 5000 nM; as for `Cc1ccc(CN(C(=O)Nc2ccc(Cl)cc2F)C2CCCC2)o1` [Compound 172, 3-(4-chloro-2-fluoro-phenyl)-1-cyclopentyl-1-[(5-methyl-2-furyl)methyl]urea], 100 to 500 nM.
For the molecule `Cc1ccc(CN(C(=O)N(C)c2ccc(C#CCO)cc2)C2CCC2)o1` [Compound 306, 1-cyclobutyl-3-[4-(3-hydroxyprop-1-ynyl)phenyl]-3-methyl-1-[(5-methyl-2-furyl)methyl]urea], under “Homo sapiens, SK-OV-3, 24 h”, the IC50 lay within 1000 to 5000 nM.
For the molecule `Cc1ncc(CN(C(=O)Nc2ccccc2)C2CCCC2)o1` [Compound 143, 1-cyclopentyl-1-[(2-methyloxazol-5-yl)methyl]-3-phenyl-urea], the IC50 (Homo sapiens, SK-OV-3, 24 h) fell in the range of 1000 to 5000 nM.
For the molecule `O=C(Nc1ccc(Cl)cc1)N(Cc1nc2c(s1)COCC2)C1CCCC1` [Compound 311, 3-(4-chlorophenyl)-1-cyclopentyl-1-(6,7-dihydro-4H-pyrano[4,3-d]thiazol-2-ylmethyl)urea], the IC50 (Homo sapiens, SK-OV-3, 24 h) was in the range of 100 to 500 nM.
`Cc1ccc(C(C)N(C(=O)Nc2ccc(C#N)cc2)C2CCCC2)o1` (racemic) [Compound 190, 3-(4-cyanophenyl)-1-cyclopentyl-1-[1-(5-methyl-2-furyl)ethyl]urea]: the 50% inhibitory concentration (IC50) (Homo sapiens, SK-OV-3, 24 h) is 100 to 500 nM.
Take `COc1ccc(CN(C(=O)Nc2ccccc2)C2CCCC2)cc1C` [Compound 45, 1-cyclopentyl-1-[(4-methoxy-3-methyl-phenyl)methyl]-3-phenyl-urea]: the IC50 (Homo sapiens, SK-OV-3, 24 h) lay within 100 to 500 nM.
For `N#Cc1ccc(CN(C(=O)Nc2ccc(F)cc2)C2CCCC2)o1` [Compound 61, 1-[(5-cyano-2-furyl)methyl]-1-cyclopentyl-3-(4-fluorophenyl)urea], where the note is “Homo sapiens, SK-OV-3, 24 h”, the IC50 is over 5000 nM.
`O=C(Nc1ccc(Cl)cc1)N(Cc1ncccn1)C1CCCC1` [Compound 73, 3-(4-chlorophenyl)-1-cyclopentyl-1-(pyrimidin-2-ylmethyl)urea]: the IC50 (Homo sapiens, SK-OV-3, 24 h) was 1000 to 5000 nM.
For `CC1(CN(C(=O)Nc2ccc(F)cc2)C2CCCC2)CCN(C(=O)OC(C)(C)C)CC1` [Compound 78, tert-butyl 4-[[cyclopentyl-[(4-fluorophenyl)carbamoyl]amino]methyl]-4-methyl-piperidine-1-carboxylate], where the note is “Homo sapiens, SK-OV-3, 24 h”, the IC50 lay in the range of 100 to 500 nM.
Still for that read-out and setting: as for `CC1(CN(C(=O)Nc2ccccc2)C2CCCC2)CCN(C(=O)OC(C)(C)C)CC1` [Compound 77, tert-butyl 4-[[cyclopentyl(phenylcarbamoyl)amino]methyl]-4-methyl-piperidine-1-carboxylate], the figure is 100 to 500 nM; as for `N#Cc1ccc(NC(=O)N(Cc2ccc3ocnc3c2)C2CCC2)cc1` [Compound 223, 1-(1,3-benzoxazol-5-ylmethyl)-3-(4-cyanophenyl)-1-cyclobutyl-urea], 100 to 500 nM; as for `Cc1ccc(CN(C(=O)Nc2ccc(Cl)cc2)C2CCC(C#N)C2)o1` (stereo not shown) [Compound 254, 3-(4-chlorophenyl)-1-(3-cyanocyclopentyl)-1-[(5-methyl-2-furyl)methyl]urea], 500 to 1000 nM.
Turning to `Cc1ccc(CN(C(=O)Nc2ccccc2)C(C)C)o1` [Compound 138, 1-isopropyl-1-[(5-methyl-2-furyl)methyl]-3-phenyl-urea], the IC50 (Homo sapiens, SK-OV-3, 24 h) lay within 1000 to 5000 nM.
On to `Cc1ccc(CN(C(=O)Nc2ccc(Cl)cc2)c2cncn2C)o1` [Compound 193, 3-(4-chlorophenyl)-1-[(5-methyl-2-furyl)methyl]-1-(3-methylimidazol-4-yl)urea], for which the IC50 lay within 500 to 1000 nM.
For the molecule `CCc1ccc(NC(=O)N(Cc2nccs2)C2CCCC2)cc1` [Compound 36, 1-cyclopentyl-3-(4-ethylphenyl)-1-(thiazol-2-ylmethyl)urea], for the setting “Homo sapiens, SK-OV-3, 24 h”, the IC50 lay in the range of 1000 to 5000 nM.
Take `Cc1nc(C)c(CN(C(=O)Nc2ccc(F)c(F)c2)C2CCCC2)s1` [Compound 171, 1-cyclopentyl-1-[(2,4-dimethylthiazol-5-yl)methyl]-3-(3,4-difluorophenyl)-urea]: under “Homo sapiens, SK-OV-3, 24 h”, the IC50 lay in the range of 1000 to 5000 nM.
Turning to `Cc1ccc(CN(C(=O)Nc2ccc(Cl)cc2)c2cnoc2)o1` [Compound 305, 3-(4-chlorophenyl)-1-isoxazol-4-yl-1-[(5-methyl-2-furyl)methyl]urea], the IC50 (Homo sapiens, SK-OV-3, 24 h) is under 100 nM.
`CCc1ccc(CN(C(=O)Nc2ccc(C#N)cc2)c2cnoc2C)o1` [Compound 299, 3-(4-cyanophenyl)-1-[(5-ethyl-2-furyl)methyl]-1-(5-methylisoxazol-4-yl)urea]: the IC50 (Homo sapiens, SK-OV-3, 24 h) is 100 to 500 nM.
Still for that read-out and setting: the result for `O=C(Nc1ccccc1)N(Cc1cccnc1)C1CCCC1` [Compound 65, 1-cyclopentyl-3-phenyl-1-(3-pyridylmethyl)urea] reads 1000 to 5000 nM; that for `N#Cc1cc(CN(C(=O)Nc2ccc(F)c(F)c2)C2CCCC2)ccc1F` [Compound 52, 1-[(3-cyano-4-fluoro-phenyl)methyl]-1-cyclopentyl-3-(3,4-difluorophenyl)urea], under 100 nM; that for `Cc1ccc(CN(C(=O)Nc2ncc(Br)s2)C2CCCC2)o1` [Compound 161, 3-(5-bromothiazol-2-yl)-1-cyclopentyl-1-[(5-methyl-2-furyl)methyl]urea], under 100 nM.
The same measure, in the same setting: the result for `Cc1ccc(CN(C(=O)Nc2ccc(Cl)cc2)c2ncccc2C)o1` [Compound 318, 3-(4-chlorophenyl)-1-[(5-methyl-2-furyl)methyl]-1-(3-methyl-2-pyridyl)urea] reads under 100 nM; that for `O=C(Nc1ccc(C#CCO)cc1)N(Cc1ccnc(C(F)(F)F)c1)C1CCC1` [Compound 296, 1-cyclobutyl-3-[4-(3-hydroxyprop-1-ynyl)phenyl]-1-[[2-(trifluoromethyl)-4-pyridyl]methyl]urea], 100 to 500 nM; that for `CN1CCC(N(Cc2ccc3ncsc3c2)C(=O)Nc2ccc(C#N)cc2)CC1` [Compound 264, 1-(1,3-benzothiazol-6-ylmethyl)-3-(4-cyanophenyl)-1-(1-methyl-4-piperidyl) urea], over 5000 nM.

Broadly, the IC50 is the point on the concentration scale where inhibition reaches its midpoint.
